Test results: PubChem BioAssay (NCI)
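Where inhibition never reached the appropriate level, the endpoint shown equals the highest concentration tested. Otherwise, values were interpolated linearly from a five-concentration, 48-hour dose response in 96-well plates. GI50 marks 50% less growth. TGI denotes the concentration required for complete inhibition of growth.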

Columns and labels:
Assay in all cases: NCI anticancer screen, dose series, 48 h; in the data active means GI50 below about 0.43 µM; inactive means the rest
786-0 renal = tested on: 786-0 renal
A498 renal = tested on: A498 renal
A549 NSCLC = tested on: A549 NSCLC
ACHN renal = tested on: ACHN renal
BT-549 breast = tested on: BT-549 breast
CAKI-1 renal = tested on: CAKI-1 renal
CCRF-CEM leukemia = tested on: CCRF-CEM leukemia
COLO 205 colon = tested on: COLO 205 colon
DU-145 prostate = tested on: DU-145 prostate
EKVX NSCLC = tested on: EKVX NSCLC
HCC-2998 colon = tested on: HCC-2998 colon
HCT-116 colon = tested on: HCT-116 colon
HCT-15 colon = tested on: HCT-15 colon
HL-60(TB) leukemia = tested on: HL-60(TB) leukemia
HOP-62 NSCLC = tested on: HOP-62 NSCLC
HOP-92 NSCLC = tested on: HOP-92 NSCLC
HS 578T breast = tested on: HS 578T breast
HT29 colon = tested on: HT29 colon
IGROV1 ovarian = tested on: IGROV1 ovarian
K-562 leukemia = tested on: K-562 leukemia
KM12 colon = tested on: KM12 colon
LOX IMVI melanoma = tested on: LOX IMVI melanoma
M14 melanoma = tested on: M14 melanoma
MALME-3M melanoma = tested on: MALME-3M melanoma
MCF7 breast = tested on: MCF7 breast
MDA-MB-231 breast = tested on: MDA-MB-231 breast
MDA-MB-435 = tested on: MDA-MB-435
MOLT-4 leukemia = tested on: MOLT-4 leukemia
NCI-H226 lung = tested on: NCI-H226 lung
NCI-H23 lung = tested on: NCI-H23 lung
NCI-H460 lung = tested on: NCI-H460 lung
NCI-H522 lung = tested on: NCI-H522 lung
NCI/ADR-RES ovarian = tested on: NCI/ADR-RES ovarian
OVCAR-3 ovarian = tested on: OVCAR-3 ovarian
OVCAR-4 ovarian = tested on: OVCAR-4 ovarian
OVCAR-5 ovarian = tested on: OVCAR-5 ovarian
OVCAR-8 ovarian = tested on: OVCAR-8 ovarian
PC-3 prostate = tested on: PC-3 prostate
RPMI-8226 leukemia = tested on: RPMI-8226 leukemia
RXF 393 renal = tested on: RXF 393 renal
SF-268 CNS = tested on: SF-268 CNS
SF-295 CNS = tested on: SF-295 CNS
SF-539 CNS = tested on: SF-539 CNS
SK-MEL-2 melanoma = tested on: SK-MEL-2 melanoma
SK-MEL-28 melanoma = tested on: SK-MEL-28 melanoma
SK-MEL-5 melanoma = tested on: SK-MEL-5 melanoma
SK-OV-3 ovarian = tested on: SK-OV-3 ovarian
SN12C renal = tested on: SN12C renal
SNB-19 CNS = tested on: SNB-19 CNS
SNB-75 CNS = tested on: SNB-75 CNS
SR leukemia = tested on: SR leukemia
SW-620 colon = tested on: SW-620 colon
T-47D breast = tested on: T-47D breast
TK-10 renal = tested on: TK-10 renal
U251 CNS = tested on: U251 CNS
UACC-257 melanoma = tested on: UACC-257 melanoma
UACC-62 melanoma = tested on: UACC-62 melanoma
UO-31 renal = tested on: UO-31 renal

CN1C(=O)C2(c3ccccc31)N(c1ccc(Cl)cc1)C(=O)C2(c1ccccc1)c1ccccc1 (stereo unspecified)
90.5 µM: TGI (SNB-75 CNS)
95.3 µM: TGI (K-562 leukemia)
49.1 µM: TGI (HOP-92 NSCLC)
16.5 µM: TGI (HL-60(TB) leukemia)
inactive: GI50 (786-0 renal) > 100 µM | GI50 (A498 renal) 34.3 µM | GI50 (A549 NSCLC) 18.5 µM | GI50 (ACHN renal) 78.4 µM | GI50 (BT-549 breast) > 100 µM | GI50 (CAKI-1 renal) > 100 µM | GI50 (CCRF-CEM leukemia) 9.72 µM | GI50 (COLO 205 colon) 37.6 µM | GI50 (DU-145 prostate) 99 µM | GI50 (EKVX NSCLC) 53.3 µM | GI50 (HCC-2998 colon) 66 µM | GI50 (HCT-116 colon) 9.57 µM | GI50 (HCT-15 colon) > 100 µM | GI50 (HL-60(TB) leukemia) 3.42 µM | GI50 (HOP-62 NSCLC) > 100 µM | GI50 (HOP-92 NSCLC) 5.62 µM | GI50 (HS 578T breast) 21.4 µM | GI50 (HT29 colon) 11 µM | GI50 (IGROV1 ovarian) > 100 µM | GI50 (K-562 leukemia) 4.28 µM | GI50 (KM12 colon) > 100 µM | GI50 (LOX IMVI melanoma) > 100 µM | GI50 (M14 melanoma) 45.3 µM | GI50 (MALME-3M melanoma) 50.8 µM | GI50 (MCF7 breast) 39.6 µM | GI50 (MDA-MB-231 breast) 13.4 µM | GI50 (MDA-MB-435) > 100 µM | GI50 (MOLT-4 leukemia) 9.86 µM | GI50 (NCI-H226 lung) > 100 µM | GI50 (NCI-H23 lung) 64.7 µM | GI50 (NCI-H460 lung) 52.2 µM | GI50 (NCI-H522 lung) 10 µM | GI50 (NCI/ADR-RES ovarian) 34.7 µM | GI50 (OVCAR-3 ovarian) 20.2 µM | GI50 (OVCAR-4 ovarian) 5.1 µM | GI50 (OVCAR-5 ovarian) > 100 µM | GI50 (OVCAR-8 ovarian) > 100 µM | GI50 (PC-3 prostate) 5.63 µM | GI50 (RPMI-8226 leukemia) 6.25 µM | GI50 (RXF 393 renal) 64.6 µM | GI50 (SF-268 CNS) > 100 µM | GI50 (SF-295 CNS) 11 µM | GI50 (SF-539 CNS) > 100 µM | GI50 (SK-MEL-2 melanoma) 35.6 µM | GI50 (SK-MEL-28 melanoma) > 100 µM | GI50 (SK-MEL-5 melanoma) 54.5 µM | GI50 (SK-OV-3 ovarian) > 100 µM | GI50 (SN12C renal) 94.3 µM | GI50 (SNB-19 CNS) 22.4 µM | GI50 (SNB-75 CNS) 17.8 µM | GI50 (SR leukemia) 41.7 µM | GI50 (SW-620 colon) > 100 µM | GI50 (T-47D breast) 6.29 µM | GI50 (TK-10 renal) > 100 µM | GI50 (U251 CNS) 45.5 µM | GI50 (UACC-257 melanoma) 47.6 µM | GI50 (UACC-62 melanoma) 39.7 µM | GI50 (UO-31 renal) 27.9 µM
> 100 µM: TGI (786-0 renal) | TGI (A498 renal) | TGI (A549 NSCLC) | TGI (ACHN renal) | TGI (BT-549 breast) | TGI (CAKI-1 renal) | TGI (CCRF-CEM leukemia) | TGI (COLO 205 colon) | TGI (DU-145 prostate) | TGI (EKVX NSCLC) | TGI (HCC-2998 colon) | TGI (HCT-116 colon) | TGI (HCT-15 colon) | TGI (HOP-62 NSCLC) | TGI (HS 578T breast) | TGI (HT29 colon) | TGI (IGROV1 ovarian) | TGI (KM12 colon) | TGI (LOX IMVI melanoma) | TGI (M14 melanoma) | TGI (MALME-3M melanoma) | TGI (MCF7 breast) | TGI (MDA-MB-231 breast) | TGI (MDA-MB-435) | TGI (MOLT-4 leukemia) | TGI (NCI-H226 lung) | TGI (NCI-H23 lung) | TGI (NCI-H460 lung) | TGI (NCI-H522 lung) | TGI (NCI/ADR-RES ovarian) | TGI (OVCAR-3 ovarian) | TGI (OVCAR-4 ovarian) | TGI (OVCAR-5 ovarian) | TGI (OVCAR-8 ovarian) | TGI (PC-3 prostate) | TGI (RPMI-8226 leukemia) | TGI (RXF 393 renal) | TGI (SF-268 CNS) | TGI (SF-295 CNS) | TGI (SF-539 CNS) | TGI (SK-MEL-2 melanoma) | TGI (SK-MEL-28 melanoma) | TGI (SK-MEL-5 melanoma) | TGI (SK-OV-3 ovarian) | TGI (SN12C renal) | TGI (SNB-19 CNS) | TGI (SR leukemia) | TGI (SW-620 colon) | TGI (T-47D breast) | TGI (TK-10 renal) | TGI (U251 CNS) | TGI (UACC-257 melanoma) | TGI (UACC-62 melanoma) | TGI (UO-31 renal)
